Values of other authors as cited in patent US20240352056A1, “Improved methods for production of cyclic guanosine-monophosphate analogues” (Mireca Medicines GmbH, priority 2021, published 2024).

Tests used:
[1] = system: cGMP-dependent protein kinase
[2] = system: cAMP-dependent protein kinase
[3] = system: rd1 and rd2 photoreceptors; details: rd1 and rd2 mouse retinitis pigmentosa models, in vitro and in vivo

Row | SMILES | antagonism of the activation of the cGMP-dependent protein kinase [1] | binding to cGMP-dependent protein kinase and stimulation of its phosphotransferase activity [1] | antagonism / inhibition of cAMP-dependent protein kinase [2] | also measured
1 | O=c1c2nc(Br)n([C@@H]3O[C@@H]4CO[P@@](O)(=S)O[C@H]4[C@H]3O)c2nc2[nH]c(-c3ccccc3)cn12 [1a, Triethylammonium Rp-8-Bromo-β-phenyl-1,N2-ethenoguanosine-3′, 5′-cyclic monophosphorothioate] |  |  |  | neuroprotective effects in vivo (photoreceptors): potent neuroprotective effects in vivo; activity towards PKG (agonist or antagonist) (PKG): antagonistic activity towards PKG
2 | Nc1nc2c(nc(Cl)n2[C@@H]2O[C@@H]3CO[P@@](O)(=S)O[C@H]3[C@H]2O)c(=O)[nH]1 [(Rp)-8-Cl-cGMPS, 8-chloroguanosine 3′, 5′-monophosphorothioate] | antagonized the activation of the cGMP-dependent protein kinase | bound to the enzyme without stimulation of its activity | weak inhibitor | selectivity for cGMP-dependent over cAMP-dependent protein kinase [1]: rather selective inhibitor of the cGMP-dependent protein kinase
3 | Nc1nc2c(ncn2[C@@H]2O[C@@H]3COP(O)(=S)O[C@H]3[C@H]2O)c(=O)[nH]1 (stereo partly drawn) [(Rp)-cGMPS, guanosine 3′, 5′-monophosphorothioate] | antagonized the activation of the cGMP-dependent protein kinase | bound to the enzyme without stimulation of its activity | antagonized the activation of cAMP-dependent protein kinase | 
4 | Nc1nc2c(nc(Cl)n2[C@@H]2O[C@@H]3CO[P@@](O)(=S)O[C@H]3[C@H]2O)c(=O)[nH]1 [(Sp)-8-Cl-cGMPS, 8-chloroguanosine 3′, 5′-monophosphorothioate] |  | stimulated its phosphotransferase activity |  | 
5 | Nc1nc2c(ncn2[C@@H]2O[C@@H]3COP(O)(=S)O[C@H]3[C@H]2O)c(=O)[nH]1 (stereo partly drawn) [(Sp)-cGMPS, guanosine 3′, 5′-monophosphorothioate] |  | stimulated its phosphotransferase activity |  | 
6 | Nc1nc2c(nc(Br)n2[C@@H]2O[C@@H]3COP(O)(=S)O[C@H]3[C@H]2O)c(=O)[nH]1 (stereo partly drawn) [Rp-8-Br-cGMPS] |  |  |  | protection of photoreceptors [3]: protection of rd1 and rd2 photoreceptors
